In paper PMC8781550, “The Effect of pH and Sodium Caseinate on the Aqueous Solubility, Stability, and Crystallinity of Rutin towards Concentrated Colloidally Stable Particles for the Incorporation into Functional Foods” (Molecules, 2022):

Key:
[1] = set-up: method as in doi:10.1016/j.foodhyd.2019.05.032; details: cited from earlier work
[2] = cited from earlier work
[3] = Aqueous solubility (recovery) of rutin at various pH (centrifugation, HPLC of supernatant); assay type: physicochemical
Procedure: Rutin was mixed with Milli-Q® (MilliporeSigma, Burlington, MA, USA) water at various concentrations (0.01 to 10% w/v) and the pH of the mixtures increased gradually (while stirring at 300 rpm) until the full dissolution was achieved. […] Then, the pH was increased further until the complete dissolution. […] Samples were taken at each pH point (i.e., pH 1–11) and at each concentration of rutin.
In order to determine the optimum amount of both rutin and NaCas to achieve the best loading, various concentrations of rutin (0.01–4% w/v) were dissolved in a solution of NaCas (0.2–8% w/v) at pH 11, which was then acidified down to pH 6, where the precipitates were formed. A duration of 15 min between each pH adjustment was allowed, and samples were taken along the process at every pH point (i.e., pH 11, 9, 8, 7, and 6; pH below 6 was not considered as the sample withdrawal was not practical due to the co-precipitation of NaCas and rutin). The withdrawn samples were left for 30 min for the complete formation of the possible precipitates. Each sample was then divided into two equal parts; the first part was centrifuged (3000× g, 20 °C, 10 min) in the Amicon Ultra-15 Centrifugal Filter Units containing a cellulose membrane with a molecular weight cut-off of […] (Ultracel-100K, Millipore, Burlington, MA, USA) to remove both precipitates and colloidally stable complexes, while the second part was simply filtered using a 0.45 µm membrane (Millipore) to remove the precipitates only. The concentration of rutin in the ultrafiltrates, as well as the filtrates (the second part), was determined using HPLC analysis, and the rutin recovery% was calculated correspondingly. As the control, the same concentration of rutin (1%) was also treated and analysed the same way as the rutin–NaCas mixture. In this study, for simplicity, the recovery % of rutin is referred to as its solubility.

[4] = Crystallinity of dried rutin at each pH (XRD); assay type: physicochemical
Procedure: To study the crystallinity of rutin at each pH, samples of rutin at each pH were stored in a desiccator with silica beads (25 °C) to dry and crystallize. The dried materials were ground using a mortar and pestle and then were analysed for the degree of crystallinity at 20.0 °C using a Rigaku Rapid image-plate detector (Rigaku, The Woodlands, TX, USA) set at 127.40 mm. The Cu Kα radiation (λ = 1.540562 Å) was generated by a Rigaku MicroMax007 microfocus (rotating anode generator; Rigaku, The Woodlands, TX, USA) and an Osmic-Rigaku metal multi-layer optic device (Rigaku, USA) was used for focusing and monochromation. Samples were mounted in Hampton CryoLoops (Hampton Research, Aliso Viejo, CA, USA), and data collection was under the control of RAPID II software (Version 2.4.2, Rigaku, USA). The data were background corrected and converted to a line profile with 2DP programme (Version 1.0.3.4, Rigaku, USA), and the resulting diffractograms were compared using CrystalDiffract software (Version 6.5.5, CrystalMaker Software Ltd., Oxfordshire, UK). A 2θ angle range of 5° to 100° was used for the analysis of all the samples.

[5] = set-up: method as in PMID 25496805, PMID 20201551; details: cited from earlier work
[6] = Chemical stability of rutin at alkaline pH (HPLC); assay type: physicochemical; details: rutin 1% w/v dissolved at pH 11.0 and kept for 30 min

SMILES: C[C@@H]1O[C@@H](OC[C@H]2O[C@@H](Oc3c(-c4ccc(O)c(O)c4)oc4cc(O)cc(O)c4c3=O)[C@H](O)[C@@H](O)[C@@H]2O)[C@H](O)[C@H](O)[C@H]1O [rutin]
- Solubility in ethanol [1]: about 4 % w/v
- Decomposition of rutin ([2]; 0.2 M NaOH, with or without beta-cyclodextrin): slow decomposition
- Rutin concentration remaining ([2]; after 5 h, pH constantly adjusted to 8): approximately 20%
- Rutin concentration ([2]; weak acidic conditions (pH 5)): remained almost unchanged
- Aqueous solubility of rutin ([3]; 0.01% w/v rutin in water, regardless of the pH): most of the rutin was soluble
- Aqueous solubility (recovery): fraction of rutin soluble ([3]; dispersion containing 5% rutin, pH 9): about 90%
- Concentration of rutin that could be dissolved ([3]; pH 11.0): 10 % (w/v)
- Solubility (recovery) of rutin ([3]; pH < 6, 1% w/v rutin, regardless of association with NaCas): almost all rutin was precipitated
- Crystallinity of dried rutin particles (XRD) ([4]; pH 11 and 10): amorphous
- Crystallinity of dried rutin particles (XRD) ([4]; pH < 8): crystalline form
- Crystallinity of dried rutin particles (XRD) ([4]; pH close to 1.0): crystalline rutin was not present
- logP [5]: 0.15
- Decrease in initial concentration of rutin (chemical stability) [6]: ~10%
